Measured values as given in patent publication US10556874B2, “N-(1,3,4-oxadiazol-2-yl)aryl carboxamide derivatives with herbicidal action” (Bayer CropScience Aktiengesellschaft, priority 2015, dated 2020).

Legend:
Assay type in all cases: in vivo
Stellaria media [1] = assay: Pre-emergence herbicidal action against harmful plants; settings: 504 h, application rate 320 g/ha, scored visually after 3 weeks vs untreated controls, read-out: herbicidal activity in percent
Source text: (§1) 1. Pre-Emergence Herbicidal Action Against Harmful Plants
(§2) Seeds of monocotyledonous and dicotyledonous weed plants and crop plants are laid out in wood-fiber pots in sandy loam and covered with soil. The compounds of the invention, formulated in the form of wettable powders (WP) or as emulsion concentrates (EC), are then applied to the surface of the covering soil in the form of an aqueous suspension or emulsion at a water application rate equating to 600 to 800 l/ha, with addition of 0.2% wetting agent. After the treatment, the pots are placed in a greenhouse and kept under good growth conditions for the trial plants. The damage to the test plants is scored visually after a test period of 3 weeks by comparison with untreated controls (herbicidal activity in percent (%): 100% activity=the plants have died, 0% activity=like control plants). Here, for example, the compounds Nos. 1-145, 1-385, 3-385, 4-145, 4-385, 6-385, 7-145, 7-385 and 9-385, at an application rate of 320 g/ha, each show an activity of at least 80% against Stellaria media and Veronica persica.

Veronica persica = assay: as above; settings: 504 h, application rate 320 g/ha, scored visually after 3 weeks vs untreated controls, read-out: herbicidal activity in percent
Source text: as §1, §2

Amaranthus retroflexus = assay: Post-emergence herbicidal action against harmful plants; settings: 504 h, application rate 80 g/ha, assessed visually after about 3 weeks vs untreated controls, read-out: herbicidal action in percent
Description: (§3) 2. Post-Emergence Herbicidal Action Against Harmful Plants
(§4) Seeds of monocotyledonous and dicotyledonous weed and crop plants are laid out in sandy loam soil in wood-fiber pots, covered with soil and cultivated in a greenhouse under good growth conditions. 2 to 3 weeks after sowing, the test plants are treated at the one-leaf stage. The compounds of the invention, formulated in the form of wettable powders (WP) or as emulsion concentrates (EC), are then sprayed onto the green parts of the plants in the form of an aqueous suspension or emulsion at a water application rate equating to 600 to 800 l/ha, with addition of 0.2% wetting agent. After the test plants have been left to stand in the greenhouse under optimal growth conditions for about 3 weeks, the action of the preparations is assessed visually in comparison to untreated controls (herbicidal action in percent (%): 100% activity=the plants have died, 0% activity=like control plants). Here, for example, the compounds Nos. 1-145, 1-385, 3-385, 4-145, 4-385, 6-385, 7-145, 7-385 and 9-385, at an application rate of 80 g/ha, each show an activity of at least 80% against Stellaria media and Amaranthus retroflexus.

Stellaria media [2] = assay: as above; settings: 504 h, application rate 80 g/ha, assessed visually after about 3 weeks vs untreated controls, read-out: herbicidal action in percent
Description: as §3, §4

[3] = system: Alopecurus myosuroides (ALOMY); assay: Comparative experiment in pre-emergence; settings: dosage 80 g/ha, 100% = plants have died, 0% = like control plants
Source text: as §2
3. Comparative Experiment in Pre-Emergence
For comparative purposes, the herbicidal activity of some compounds according to the invention and the most structurally similar compounds known from the prior art were tested.

SMILES	pest or weed control at 320 g/ha (Stellaria media [1]) [%]	pest or weed control at 320 g/ha (Veronica persica) [%]	pest or weed control at 80 g/ha (Amaranthus retroflexus) [%]	pest or weed control at 80 g/ha (Stellaria media [2]) [%]	Herbicidal activity against ALOMY [3] [%]
CCOC(=O)OC(C)N(C(=O)c1ccc(C(F)(F)F)c(S(C)(=O)=O)c1C)c1nnc(C)o1 (stereo not shown) [Compound No. 1-145, ethyl 1-{[2-methyl-3-(methylsulfonyl)-4-(trifluoromethyl)benzoyl](5-methyl-1,3,4-oxadiazol-2-yl)amino}ethyl carbonate]	≥ 80	≥ 80	≥ 80	≥ 80	100
CCOC(=O)OC(C)N(C(=O)c1ccc(C(F)(F)F)c([S+](C)[O-])c1Cl)c1nnc(C)o1 (stereo not shown) [Compound No. 1-385, 1-{[2-chloro-3-(methylsulfinyl)-4-(trifluoromethyl)benzoyl](5-methyl-1,3,4-oxadiazol-2-yl)amino}ethyl ethyl carbonate]	≥ 80	≥ 80	≥ 80	≥ 80	
Cc1nnc(N(C(=O)c2ccc(C(F)(F)F)c([S+](C)[O-])c2Cl)C(C)OC(=O)OC2CCCCC2)o1 (stereo not shown) [Compound No. 3-385, 1-{[2-chloro-3-(methylsulfinyl)-4-(trifluoromethyl)benzoyl](5-methyl-1,3,4-oxadiazol-2-yl)amino}ethyl cyclohexyl carbonate]	≥ 80	≥ 80	≥ 80	≥ 80	100
CCOC(=O)OC(C)n1nc(C)oc1=NC(=O)c1ccc(C(F)(F)F)c(S(C)(=O)=O)c1C (stereo not shown) [Compound No. 4-145, ethyl 1-[5-methyl-2-{[2-methyl-3-(methylsulfonyl)-4-(trifluoromethyl)benzoyl]imino}-1,3,4-oxadiazol-3(2H)-yl]ethyl carbonate]	≥ 80	≥ 80	≥ 80	≥ 80	
CCOC(=O)OC(C)n1nc(C)oc1=NC(=O)c1ccc(C(F)(F)F)c([S+](C)[O-])c1Cl (stereo not shown) [Compound No. 4-385, ethyl 1-[5-methyl-2-{[2-chloro-3-(methylsulfinyl)-4-(trifluoromethyl)benzoyl]imino}-1,3,4-oxadiazol-3(2H)-yl]ethyl carbonate]	≥ 80	≥ 80	≥ 80	≥ 80	
Cc1nn(C(C)OC(=O)OC2CCCCC2)c(=NC(=O)c2ccc(C(F)(F)F)c([S+](C)[O-])c2Cl)o1 (stereo not shown) [Compound No. 6-385, 1-[2-{[2-chloro-3-(methylsulfinyl)-4-(trifluoromethyl)benzoyl]imino}-5-methyl-1,3,4-oxadiazol-3(2H)-yl]ethyl cyclohexyl carbonate]	≥ 80	≥ 80	≥ 80	≥ 80	
CCOC(=O)OC(C)OC(=Nc1nnc(C)o1)c1ccc(C(F)(F)F)c(S(C)(=O)=O)c1C (stereo not shown) [Compound No. 7-145, 1-[(ethoxycarbonyl)oxy]ethyl-2-methyl-N-(5-methyl-1,3,4-oxadiazol-2-yl)-3-(methylsulfonyl)-4-(trifluoromethyl)benzenecarboximidate]	≥ 80	≥ 80	≥ 80	≥ 80	
CCOC(=O)OC(C)OC(=Nc1nnc(C)o1)c1ccc(C(F)(F)F)c([S+](C)[O-])c1Cl (stereo not shown) [Compound No. 7-385, 1-[(ethoxycarbonyl)oxy]ethyl-2-chloro-N-(5-methyl-1,3,4-oxadiazol-2-yl)-3-(methylsulfinyl)-4-(trifluoromethyl)benzenecarboximidate]	≥ 80	≥ 80	≥ 80	≥ 80	90
Cc1nnc(N=C(OC(C)OC(=O)OC2CCCCC2)c2ccc(C(F)(F)F)c([S+](C)[O-])c2Cl)o1 (stereo not shown) [Compound No. 9-385, 1-{[(cyclohexyloxy)carbonyl]oxy}ethyl-2-chloro-N-(5-methyl-1,3,4-oxadiazol-2-yl)-3-(methylsulfinyl)-4-(trifluoromethyl)benzenecarboximidate]	≥ 80	≥ 80	≥ 80	≥ 80	90
